In paper PMC6479402, “Anti-Herpetic, Anti-Dengue and Antineoplastic Activities of Simple and Heterocycle-Fused Derivatives of Terpenyl-1,4-Naphthoquinone and 1,4-Anthraquinone” (Molecules, 2019):
Values joined by “and” are separate entries in the source; they are usually repeats but may differ in a detail not shown here. Identical values can stand only once. Like-named read-outs stand apart in the source and are kept apart here.

Key:
Vero = test: MTT cytotoxicity assay, non-tumor cells; assay type: cell-based, Cercopithecus aethiops; conditions: for IC50: Chlorocebus sabaeus
Procedure: The in vitro cytotoxicity evaluation of quinones was performed using the 3-(4,5 dimethylthiazol-2-yl)-2,5-diphenyltetrazolium bromide (MTT, Sigma, Cream Ridge, NJ, USA) assay as described by Betancur-Galvis et al. 2002 [22]. Briefly, Vero and HeLa cell lines were seeded at 2.0 × 10^3 cells per well of 96-well plates in DMEM supplemented with 10% of inactivated FBS, and were incubated for 24 h at 37 °C, 5% CO2. Then, each diluted molecule was added to the cells and incubated for further 48 h at 37 °C, 5% CO2. Jurkat cell line at 3 × 10^3 cells per well in a 96-well round-bottomed plate and diluted substances in RPMI-1640 medium (Sigma) supplemented with 10% FBS were plated simultaneously. After 48 h of treatment at 37 °C, 5% CO2, the media was carefully removed and 28 µL of MTT solution (4 mg/mL) was added to each well, and the plates were incubated for 2 h at 37 °C, 5% CO2. The DMSO was then added to dissolve the formed formazan crystals and absorbance was determined spectrophotometrically at 570 nm.
The minimal dilution of compound that caused 50% inhibition of the cells (IC50) was calculated by linear regression analysis of the dose-response curves generated from the absorbance data with the statistical GraphPad Prisma 5.0. IC50 values were expressed as the mean ± standard deviation (M ± SD) of two independent experiments done in quadruplicate.

HeLa = test: MTT cytotoxicity assay; assay type: cell-based; conditions: Homo sapiens, HeLa ATCC CRL-1958, 48 h, read-out: IC50 ± SD, HeLa
Procedure: (§1) Then, each diluted molecule was added to the cells and incubated for further 48 h at 37 °C, 5% CO2. […] The DMSO was then added to dissolve the formed formazan crystals and absorbance was determined spectrophotometrically at 570 nm. […] IC50 values were expressed as the mean ± standard deviation (M ± SD) of two independent experiments done in quadruplicate.

Jurkat = test: MTT cytotoxicity assay; assay type: cell-based; conditions: Homo sapiens, Jurkat ATCC TIB-152, 48 h, read-out: IC50 ± SD, Jurkat
Procedure: as §1

[1] = system: Human Herpesvirus type 2 (HHV-2); test: End-point titration technique (EPTT), anti-herpetic screening on infected Vero cells; assay type: cell-based, Human Herpesvirus 2; conditions: for Rf (reduction factor of the viral titer), HHV-2: 10 TCID50, 48 h; for minimal effective concentration: Human alphaherpesvirus 2, 10 TCID50, 48 h, tested 6.25-50 µg/mL, read-out: 10 TCID50: non-toxic concentration that showed viral reduction factor, HHV-2
Procedure: (§2) The in vitro antiviral evaluation of the 27 substances against Human Herpesvirus type 1 (HHV-1) and 2 (HHV-2) was made on infected Vero cells, using the end-point titration technique (EPTT).
(§3) The antiviral activity of molecules against 1 and 10 Cell Culture Infectious Dose 50% (10TCID50) of HHV-1 and HHV-2, respectively, was determined using end-point titration technique (EPTT). Vero cells grown in 96-well plates at a density of 2.0 × 10^4 cells/well were incubated at 37 °C in 5% CO2 atmosphere until constitute 80% of cell monolayer. Then, viral suspensions of HHV-1 or HHV-2 with concentrations of 6.25 µg/mL to 50 µg/mL of compounds were performed in DMEM supplemented with 2% FBS containing 1% and 0.5% carboxymethylcellulose (CMC) for HHV-1 and HHV-2, respectively. Mixture was incubated during 15 minutes at room temperature and was added to the cell monolayer. After 48 h of incubation at 37 °C (5% CO2), the cytopathic effect was examined, the microplates were fixed with 3.5% formaldehyde and stained with 0.2% crystal violet. Two independent experiments by quadruplicate for each viral serotype and each were carried out. Positive controls, such as dextran sulfate (DS) and acyclovir (A) for early stages and late stages of infection, respectively, were included.

[2] = system: Human Herpesvirus type 1 (HHV-1); test: as above; assay type: cell-based; conditions: for minimal effective concentration: Human alphaherpesvirus 1, 1 TCID50, 48 h, read-out: 1 TCID50: non-toxic concentration that showed viral reduction factor, HHV-1; for Rf (reduction factor of the viral titer), HHV-1: 1 TCID50, 48 h
Procedure: as §2, §3

HHV-2 = test: Plaque reduction assay, simultaneous and post-infection treatment, Vero cells; assay type: cell-based, Human Herpesvirus 2; conditions: for Antiviral activity in simultaneous treatment, HHV-2: PFU, NQ 4 0.4–3.1 µg/mL, DS 5 µg/mL; for Antiviral activity in post-infection treatment, HHV-2: post-infective stages, acyclovir 1.5 µg/mL
Procedure: (§4) To define the stage of the viral replicative cycle where NQ 4 exerts its action, simultaneous and post-infection treatments against HHV-1 and HHV-2 were performed. […] First, we determined the inhibitory concentration 50% (IC50) for the compound and drug positive controls on infected cells and their effects on non-tumoral Vero cells, to define the concentration of evaluation and to calculate the antiviral selectivity index (SI). Then, the concentration of NQ 4 that reduced the number of viral plaques by 50% (EC50) was determined from the dose-response curves.
(§5) The potential antiviral mechanism of NQ 4 was evaluated by the plaque reduction assay as previously described by us. Vero cell monolayers grown in 24-well plates were infected with 100 PFU/well of each virus. For simultaneous treatment, the compound and the virus were added simultaneously to the cell monolayers and incubated for 1 h at 37 °C (5% CO2). Then, cells were washed with phosphate buffered saline (PBS, pH = 7.0) and CMC at 1% and 0.75% was added for HHV-1 and HHV-2, respectively. In post-infection treatment, virus was added to cell monolayer and incubated for 1 h at 37 °C (5% CO2). After incubation, washing was performed with PBS and molecule previously prepared in CMC 1% and 0.75% for HHV-1 and HHV-2 respectively, was added. In both treatments, NQ 4 was prepared at concentrations from 0.4 µg/mL to 3.1 µg/mL and the cell monolayers allowed to incubate for 72 h. Subsequently, cells were fixed and stained with a solution of 3.5% formaldehyde with 0.2% crystal violet, and the viral plaques were counted. Dextran sulfate (DS) was included as positive control in simultaneous assay and acyclovir (A) was the positive control in after infection treatment.

HHV-1 [3] = test: as above; assay type: cell-based, Human Herpesvirus 1; conditions: for Antiviral activity in simultaneous treatment, HHV-1: PFU, NQ 4 0.4–3.1 µg/mL, DS 5 µg/mL; for Antiviral activity in post-infection treatment, HHV-1: post-infective stages, acyclovir 1.5 µg/mL
Procedure: as §4, §5

DENV-2 [4] = test: Plaque reduction assay, simultaneous and post-infection treatment, BHK-21 cells; assay type: cell-based, Dengue virus type 2; conditions: for Antiviral activity in post-infection treatment, DENV-2: post-infective stages, ribavirin 3.7 µg/mL
Procedure: as §4
Against DENV, the effect of NQ 4 either simultaneously or post-infection was also evaluated by the plaque reduction assay as previously described. Concentrations employed for this assay were from 0.4 µg/mL to 1.6 µg/mL. In this test, BHK-21 cell monolayers grown in 24-well plates were infected with 100 PFU/well of DENV-2 and treatments were performed in the same way to describe for Herpesviruses. Moreover, the monolayers were incubated for 6 days, fixed and stained with a solution of 3.5% formaldehyde with 0.2% crystal violet, and the viral plaques were counted. Heparin (H) was included as a positive control in the simultaneous assay, and ribavirin (R) was the positive control in after infection treatment.

DENV-2 [5] = system: DENV-2; set-up: method as in PMID 20837762; conditions: low concentrations; cited from earlier work
HHV-1 [6] = test: HHV-1 viral entry assay on Vero cells (plaque reduction); assay type: cell-based, Human Herpesvirus 1; conditions: 0.1–0.8 µg/mL
Procedure: (§6) The effect of NQ 4 in the initial phases of the HHV-1 viral replication was done as previously described by Cardozo et al., 2011 [53]. In the attachment assay, pre-chilled (1 h at 4 °C) Vero cell monolayers were exposed to viruses (100 PFU/well) in presence or absence of the compound and were incubated for 2 h at 4 °C. After incubation, the substance and unbounded viruses were removed with cold PBS; cells were overlaid with CMC 1% and incubated for 72 h at 37 °C (5% CO2). In the entry assay, pre-chilled cells were infected with viruses (100 PFU/well) and incubated for 2 h at 4 °C. After this time, the unbound viruses were removed with cold PBS; cells were treated with different concentrations of pre-warmed compound, and then incubated for 1 h at 37 °C. Unabsorbed viruses were inactivated using citrate buffer (pH = 3.0) and then cells were washed with PBS, overlaid with CMC 1%, and incubated for 72 h at 37 °C (5% CO2). In both assays, further procedures were the same mentioned previously for the plaque reduction assay and dextran sulfate (DS) was included as positive control.
(§7) In these tests, the evaluated NQ 4 concentration range was from 0.1 to 0.8 µg/mL and the effective concentration fifty (EC50), the concentration that reduces the 50% of plaque forming units, was determined from dose-effect curves by linear regression methods for each compound. […]

HHV-1 [7] = test: HHV-1 viral attachment assay on Vero cells (plaque reduction); assay type: cell-based, Human Herpesvirus 1; conditions: Human alphaherpesvirus 1, Vero
Procedure: as §6, §7

[8] = non-tumoral Vero cells, data not shown
[9] = Vero ATCC CCL-81, 48 h, MTT, read-out: IC50 ± SD, Vero
[10] = non-tumoral Vero cells, data not shown, read-out: IC50 on Vero cells

heparin [reference compound]
IC50 on Vero cells (Vero; [8]): > 400 µg/mL

CC1(C)CCCc2cc3c(cc21)C(=O)C(Cl)=C(Cl)C3=O [AQ 12]
IC50 (HeLa): 38.5 ± 1.2 µM
IC50 (Jurkat): 27.5 ± 0.6 µM
IC50 (Vero; [9]): 136 ± 4.4 µM
Rf (reduction factor of the viral titer), HHV-2 [1]: 1 × 10^2
Rf (reduction factor of the viral titer), HHV-2 ([1]; listed as 12): 10^2
minimal effective concentration [1]: 25 µg/mL
minimal effective concentration ([2]; tested 6.25-50 µg/mL): > 50 µg/mL

CCn1c(C)c(C(=O)OC)c2c1C(=O)c1cc3c(cc1C2=O)C(C)(C)CCC3 [HetQ 22]
IC50 (HeLa): 73 ± 1.6 µM
IC50 (Jurkat): 71.7 ± 1.8 µM
IC50 (Vero; [9]): 183 ± 15.9 µM

Dextran sulfate [DS, reference compound]
IC50 on Vero cells (Vero; [8]): > 400 µg/mL
Antiviral activity in simultaneous treatment, HHV-2 (HHV-2): active
Antiviral activity in simultaneous treatment, HHV-1 (HHV-1 [3]): active
Rf (reduction factor of the viral titer), HHV-1 [2]: 10^2
1 TCID50: non-toxic concentration that showed viral reduction factor, HHV-1 ([2]; 48 h, tested 6.25-50 µg/mL): 0.5 µg/mL

NC(=O)c1ncn([C@@H]2O[C@H](CO)[C@@H](O)[C@H]2O)n1 [ribavirin, reference compound]
Antiviral activity in post-infection treatment, DENV-2 (DENV-2 [4]): active
IC50 (Vero; [10]): > 400 µg/mL

Cc1c2c(nc3ccccc13)C(=O)c1cc(CCCC(C)C)ccc1C2=O [HetQ 21]
IC50 (HeLa): > 69.9 µM
IC50 (Jurkat): > 69.9 µM

COc1cccc2c1C(=O)c1c(O)c3c(c(O)c1C2=O)C[C@@](O)(C(=O)CO)C[C@@H]3O[C@H]1C[C@H](N)[C@H](O)[C@H](C)O1 [Doxorubicin, doxorubicin, reference compound]
IC50 (HeLa): 0.9 ± 0.1 µM
IC50 (Jurkat): 0.1 ± 0.01 µM
IC50 (Vero; [9]): 2 ± 0.1 µM
Activity against DENV-2 at very early stages of the viral replication cycle (DENV-2 [5]): active

CC(C)CCCc1ccc2c(c1)C(=O)C(Cl)=C(Cl)C2=O [NQ 4]
IC50 (HeLa): 46.6 ± 3.3 µM
IC50 (Jurkat): 36.3 ± 2 µM
Effect on HHV-1 viral entry (HHV-1 [6]): not significant
Antiviral activity in post-infection treatment, DENV-2 (DENV-2 [4]): no activity
Concentration showing antiviral activity against DENV-2 (DENV-2 [4]; pre-infective stages): 5.1 µM
Concentration showing significant antiviral activity against DENV-2 (DENV-2 [4]; simultaneous treatment (pre-infective stages), tested 0.4–1.6 µg/mL): 1.6 µg/mL
IC50 (Vero; [9]): ≥ 643 µM
IC50 (Vero; [10]): > 200 µg/mL
Rf (reduction factor of the viral titer), HHV-2 [1]: 1 × 10^2
Rf (reduction factor of the viral titer), HHV-2 ([1]; listed as 4): 10^2
minimal effective concentration [1]: 12.5 µg/mL
EC50 (HHV-2; Human alphaherpesvirus 2, simultaneous treatment, read-out: EC50, anti-herpetic activity on pre-infective stages, HHV-2): < 0.4 µg/mL and < 1.28 µM
Antiviral activity in post-infection treatment, HHV-2 (HHV-2): no activity
Antiviral activity in simultaneous treatment, HHV-2 (HHV-2): anti-herpetic activity in all concentrations tested
EC50 (HHV-1 [7]): 380 nM
EC50 (HHV-1 [7]; 2 h at 4 °C, 0.1–0.8 µg/mL): 0.12 µg/mL
EC50 (HHV-1 [3]; Human alphaherpesvirus 1, simultaneous treatment, read-out: EC50, anti-herpetic activity on pre-infective stages, HHV-1): < 0.4 µg/mL and < 1.28 µM
Antiviral activity in post-infection treatment, HHV-1 (HHV-1 [3]): no activity
Antiviral activity in simultaneous treatment, HHV-1 (HHV-1 [3]): anti-herpetic activity in all concentrations tested
Rf (reduction factor of the viral titer), HHV-1 [2]: 1 × 10^2
Rf (reduction factor of the viral titer), HHV-1 ([2]; listed as 4): 10^2
minimal effective concentration ([2]; tested 6.25-50 µg/mL): 6.25 µg/mL

Cc1cc(C)c2c3c(oc2c1)C(=O)c1cc(CCCC(C)C)ccc1C3=O [HetQ 20]
IC50 (HeLa): > 69.3 µM
IC50 (Jurkat): 42.2 ± 0.7 µM
IC50 (Vero; [9]): 153 ± 4.5 µM

Nc1nc2c(ncn2COCCO)c(=O)[nH]1 [A, Acyclovir, reference compound]
IC50 (Vero; [10]): > 400 µg/mL
Rf (reduction factor of the viral titer), HHV-2 [1]: 10^4
minimal effective concentration [1]: 1.5 µg/mL
Antiviral activity in post-infection treatment, HHV-2 (HHV-2): active
Antiviral activity in post-infection treatment, HHV-1 (HHV-1 [3]): active
Rf (reduction factor of the viral titer), HHV-1 [2]: 10^4
minimal effective concentration ([2]; tested 6.25-50 µg/mL): 1.5 µg/mL

CC(C)=CCCc1ccc2c(c1)C(=O)C=CC2=O [NQ 1]
IC50 (HeLa): > 104 µM
IC50 (Jurkat): > 104 µM

Cc1ccc2[nH]c3c(c2c1)C(=O)c1ccc(CCCC(C)C)cc1C3=O [HetQ 19]
IC50 (HeLa): 77 ± 1.9 µM
IC50 (Jurkat): > 72.4 µM
IC50 (Vero; [9]): 212 ± 8.6 µM

CC(C)CCCc1ccc2c(c1)C(=O)C(Br)=C(Br)C2=O [NQ 5]
IC50 (HeLa): 19.7 ± 0.3 µM
IC50 (Jurkat): 23.5 ± 1.7 µM
IC50 (Vero; [9]): 15.7 ± 2.7 µM
